Results as given in ChEMBL document CHEMBL1157964, “Spasmolytic effects of nonprenylated rotenoid constituents of Boerhaavia diffusa roots” (2006).
Active and inactive are the calls of the source. The calls are words filed in the database; no cut-off is given here.

test system: Ileum; experiment: Antispasmodic activity in guinea pig ileum assessed as inhibition of acetylcholine-induced contraction at 10 uM; type: functional, Cavia porcellus; parameters: scale not given: the % may be the effect or the level left; conditions: not given

SMILES	Activity
CC(=O)C1=C(O)[C@@H]2[C@H]3c4c[nH]c5cccc(c45)C[C@H]3C(C)(C)N2C1=O [CYCLOPIAZONIC ACID]	52.3%

test system: Ileum; experiment: Antispasmodic activity in guinea pig ileum assessed as inhibition of acetylcholine-induced contraction at 1 uM; type: functional, Cavia porcellus; parameters: scale not given: the % may be the effect or the level left; conditions: not given

SMILES	Activity
COC(=O)C1=C(C)NC(C)=C(C(=O)OC)C1c1ccccc1[N+](=O)[O-] [NIFEDIPINE]	47.3%

test system: Ileum; experiment: Antispasmodic activity in guinea pig ileum assessed as inhibition of acetylcholine-induced contraction at 30 ug/mL; type: functional; conditions: Cavia porcellus

SMILES	Emax at 30 µg/mL	Activity
COc1ccccc1-c1coc2cc(O)c(C)c(O)c2c1=O	36.8%	
COc1cc(O)c2c(c1)O[C@@H]1COc3c(O)cccc3[C@@]1(O)C2=O	19.4%	
COC1Oc2cc(O)ccc2-c2c1oc1cc(O)c(C)c(O)c1c2=O (stereo not given)		inactive
COc1cc2c(c(O)c1C)C(=O)[C@]1(O)c3cccc(O)c3OC[C@H]1O2		inactive
COc1cc2oc3c(c(=O)c2c(O)c1C)-c1cccc(O)c1OC3OC (stereo not given)		inactive
O=c1c2c(oc3cc(O)cc(O)c13)C(O)Oc1ccccc1-2 (stereo not given)		inactive
COc1cc2oc3c(c(=O)c2c(O)c1C)-c1cccc(O)c1OC3O (stereo not given) [9-O-METHYL-4-HYDROXYBOERAVINONE B]	100%	
COc1cc2oc3c(c(=O)c2c(O)c1O)-c1ccccc1OC3O (stereo not given) [9-O-METHYL-10-HYDROXYCOCCINEONE B]	36.1%	
Cc1c(O)cc2oc3c(c(=O)c2c1O)-c1ccc(O)cc1OC3O (stereo not given) [BOERAVINONE E]	100%	
Cc1c(O)cc2oc3c(=O)oc4cc(O)ccc4c3c(=O)c2c1O [BOERAVINONE F]	50%	
COc1cc(O)c2c(=O)c3c(oc2c1)C(OC)Oc1c(O)cccc1-3 (stereo not given) [BOERAVINONE G]	60%	
COc1cc2c(c(O)c1OC)C(=O)[C@]1(O)c3ccccc3OC[C@H]1O2 [COCCINEONE E]	25.2%	
COc1ccc(Cc2nccc3cc(OC)c(OC)cc23)cc1OC [PAPAVERINE]	72.3%	
